Results published in ChEMBL document CHEMBL3885881, “DrugMatrix”.

Species on record: Rattus norvegicus
Assay: DrugMatrix - Regimen: Daily Repeat
Format: toxicity, organism-based, Sprague-Dawley
Design: regimen Daily Repeat, gender Male, age 6-8 weeks
Details: in vivo, po, route oral GAVAGE, vehicle 100 % WATER; for ABSOLUTE BASOPHIL / ABSOLUTE EOSINOPHIL / ABSOLUTE LYMPHOCYTE / ABSOLUTE MONOCYTE / ABSOLUTE SEGMENTED NEUTROPHIL / BASOPHIL / EOSINOPHIL / ERYTHROCYTE COUNT / HEMATOCRIT / HEMOGLOBIN / LEUKOCYTE COUNT / LYMPHOCYTE / MEAN CORPUSCULAR HEMOGLOBIN / MEAN CORPUSCULAR HEMOGLOBIN CONCENTRATION / MEAN CORPUSCULAR VOLUME / MONOCYTE / NEUTROPHIL / NUCLEATED RED BLOOD CELLS / PLATELET COUNT: tissue Blood; for ALANINE AMINOTRANSFERASE / ALBUMIN / ALKALINE PHOSPHATASE / ASPARTATE AMINOTRANSFERASE / BLOOD UREA NITROGEN / CARBON DIOXIDE / CHLORIDE / CHOLESTEROL / CREATINE PHOSPHOKINASE / CREATININE / GLUCOSE / LACTATE DEHYDROGENASE / LIPASE / PHOSPHORUS / POTASSIUM / SODIUM / TOTAL BILIRUBIN / TOTAL PROTEIN / URIC ACID: tissue Plasma
[1] = 0 mg/kg, 72 h, dose level Control, time 3 day
[2] = 0 mg/kg, 120 h, dose level Control, time 5 day
[3] = 60 mg/kg, 72 h, dose level Low, time 3 day

CC(C)C[C@H](NC(=O)[C@@H](O)[C@H](N)Cc1ccccc1)C(=O)O [UBENIMEX]
ABSOLUTE BASOPHIL [1]: 0 CELLS/uL | ABSOLUTE EOSINOPHIL [1]: 168.33 CELLS/uL | ABSOLUTE LYMPHOCYTE [1]: 13654.17 CELLS/uL | ABSOLUTE MONOCYTE [1]: 121 CELLS/uL | ABSOLUTE SEGMENTED NEUTROPHIL [1]: 1223.17 CELLS/uL | BASOPHIL [1]: 0% | EOSINOPHIL [1]: 1.17% | ERYTHROCYTE COUNT [1]: 5.7 x10E6/uL | HEMATOCRIT [1]: 35.33% | HEMOGLOBIN [1]: 13.97 G/DL | LEUKOCYTE COUNT [1]: 15.17 x10E3/uL | LYMPHOCYTE [1]: 89.83% | MEAN CORPUSCULAR HEMOGLOBIN [1]: 24.53 pg | MEAN CORPUSCULAR HEMOGLOBIN CONCENTRATION [1]: 39.53 G/DL | MEAN CORPUSCULAR VOLUME [1]: 62.05 fL | MONOCYTE [1]: 0.83% | NEUTROPHIL [1]: 8.17% | NUCLEATED RED BLOOD CELLS [1]: 0 /100WBC | PLATELET COUNT [1]: 1312.17 x10E3/uL | ALANINE AMINOTRANSFERASE [1]: 50.83 u/L | ALBUMIN [1]: 4.18 G/DL | ALKALINE PHOSPHATASE [1]: 334.17 u/L | ASPARTATE AMINOTRANSFERASE [1]: 82.17 u/L | BLOOD UREA NITROGEN [1]: 15.5 mg/dL | CARBON DIOXIDE [1]: 31.33 mmol/L | CHLORIDE [1]: 99.83 MEQ/L | CHOLESTEROL [1]: 76 mg/dL | CREATINE PHOSPHOKINASE [1]: 272.17 u/L | CREATININE [1]: 0.17 mg/dL | GLUCOSE [1]: 143 mg/dL | LACTATE DEHYDROGENASE [1]: 157.5 u/L | LIPASE [1]: 9.33 u/L | PHOSPHORUS [1]: 12.18 mg/dL | POTASSIUM [1]: 6.78 MEQ/L | SODIUM [1]: 143.9 MEQ/L | TOTAL BILIRUBIN [1]: 0.22 mg/dL | TOTAL PROTEIN [1]: 5.85 G/DL | URIC ACID [1]: 1.7 mg/dL | ABSOLUTE BASOPHIL [2]: 0 CELLS/uL | ABSOLUTE EOSINOPHIL [2]: 0 CELLS/uL | ABSOLUTE LYMPHOCYTE [2]: 13539.33 CELLS/uL | ABSOLUTE MONOCYTE [2]: 177.67 CELLS/uL | ABSOLUTE SEGMENTED NEUTROPHIL [2]: 2116.33 CELLS/uL | BASOPHIL [2]: 0% | EOSINOPHIL [2]: 0% | ERYTHROCYTE COUNT [2]: 5.78 x10E6/uL | HEMATOCRIT [2]: 36.13% | HEMOGLOBIN [2]: 14.1 G/DL | LEUKOCYTE COUNT [2]: 15.83 x10E3/uL | LYMPHOCYTE [2]: 85.83% | MEAN CORPUSCULAR HEMOGLOBIN [2]: 24.42 pg | MEAN CORPUSCULAR HEMOGLOBIN CONCENTRATION [2]: 39 G/DL | MEAN CORPUSCULAR VOLUME [2]: 62.55 fL | MONOCYTE [2]: 0.83% | NEUTROPHIL [2]: 13.33% | NUCLEATED RED BLOOD CELLS [2]: 0.17 /100WBC | PLATELET COUNT [2]: 1281.17 x10E3/uL | ALANINE AMINOTRANSFERASE [2]: 55.5 u/L | ALBUMIN [2]: 4.22 G/DL | ALKALINE PHOSPHATASE [2]: 345 u/L | ASPARTATE AMINOTRANSFERASE [2]: 92.5 u/L | BLOOD UREA NITROGEN [2]: 16.5 mg/dL | CARBON DIOXIDE [2]: 26.5 mmol/L | CHLORIDE [2]: 103.5 MEQ/L | CHOLESTEROL [2]: 78.5 mg/dL | CREATINE PHOSPHOKINASE [2]: 381.5 u/L | CREATININE [2]: 0.21 mg/dL | GLUCOSE [2]: 161.83 mg/dL | LACTATE DEHYDROGENASE [2]: 487.5 u/L | LIPASE [2]: 10.17 u/L | PHOSPHORUS [2]: 11.83 mg/dL | POTASSIUM [2]: 6.4 MEQ/L | SODIUM [2]: 146.95 MEQ/L | TOTAL BILIRUBIN [2]: 0.22 mg/dL | TOTAL PROTEIN [2]: 6.22 G/DL | URIC ACID [2]: 1.83 mg/dL | ABSOLUTE BASOPHIL [3]: 0 CELLS/uL | ABSOLUTE EOSINOPHIL [3]: 99.33 CELLS/uL | ABSOLUTE LYMPHOCYTE [3]: 13954.33 CELLS/uL | ABSOLUTE MONOCYTE [3]: 91 CELLS/uL | ABSOLUTE SEGMENTED NEUTROPHIL [3]: 1655.33 CELLS/uL | BASOPHIL [3]: 0% | EOSINOPHIL [3]: 0.67% | ERYTHROCYTE COUNT [3]: 5.56 x10E6/uL | HEMATOCRIT [3]: 33.13% | HEMOGLOBIN [3]: 12.97 G/DL | LEUKOCYTE COUNT [3]: 15.8 x10E3/uL | LYMPHOCYTE [3]: 88.33% | MEAN CORPUSCULAR HEMOGLOBIN [3]: 23.33 pg | MEAN CORPUSCULAR HEMOGLOBIN CONCENTRATION [3]: 39.17 G/DL | MEAN CORPUSCULAR VOLUME [3]: 59.53 fL | MONOCYTE [3]: 0.67% | NEUTROPHIL [3]: 10.33% | NUCLEATED RED BLOOD CELLS [3]: 0 /100WBC | PLATELET COUNT [3]: 1252.67 x10E3/uL | ALANINE AMINOTRANSFERASE [3]: 58 u/L | ALBUMIN [3]: 4.13 G/DL | ALKALINE PHOSPHATASE [3]: 310.67 u/L | ASPARTATE AMINOTRANSFERASE [3]: 96.67 u/L | BLOOD UREA NITROGEN [3]: 15.67 mg/dL | CARBON DIOXIDE [3]: 29.33 mmol/L | CHLORIDE [3]: 100 MEQ/L | CHOLESTEROL [3]: 80 mg/dL | CREATINE PHOSPHOKINASE [3]: 475.33 u/L | CREATININE [3]: 0.2 mg/dL | GLUCOSE [3]: 142 mg/dL | LACTATE DEHYDROGENASE [3]: 612.67 u/L | LIPASE [3]: 9.67 u/L | PHOSPHORUS [3]: 11.07 mg/dL | POTASSIUM [3]: 6.61 MEQ/L | SODIUM [3]: 143.5 MEQ/L | TOTAL BILIRUBIN [3]: 0.17 mg/dL | TOTAL PROTEIN [3]: 5.8 G/DL | URIC ACID [3]: 1.47 mg/dL
